# Reference: patent US20200339511A1, “Substituted indoline derivatives as dengue viral replication inhibitors” (priority 2016, published 2020)
# Where two headings read alike, the source gives them in different places.
# Experiments:
# [1] = test system: DENV-2 strain 16681; test: Tetravalent RT-qPCR assay, serotype 2; format: cell-based, Dengue virus; details: RT-qPCR serotype 2 16681, Protocol A, Vero cells, day 3
# Experimental: (§1) Tetravalent reverse transcriptase quantitative-PCR (RT-qPCR) assay The antiviral activity of the compounds of the invention was tested against DENV-1 strain TC974#666 (NCPV), DENV-2 strain 16681, DENV-3 strain H87 (NCPV) and DENV-4 strain H241 (NCPV) in a RT-qPCR assay. Therefore, Vero cells were infected with either DENV-1, or -2, or -3, or -4 in the presence or absence of test compounds. At day 3 post-infection, the cells were lysed and cell lysates were used to prepare cDNA of both a viral target (the 3′UTR of DENV; Table 2) and a cellular reference gene (β-actin, Table 2). Subsequently, a duplex real time PCR was performed on a Lightcycler480 instrument. The generated Cp value is inversely proportional to the amount of RNA expression of these targets. Inhibition of DENV replication by a test compound results in a shift of Cp's for the 3′UTR gene. On the other hand, if a test compound is toxic to the cells, a similar effect on β-actin expression will be observed. The comparative ΔΔCp method is used to calculate EC50, which is based on the relative gene expression of the target gene (3′UTR) normalized with the cellular housekeeping gene (β-actin). In addition, CC50 values are determined based on the Cp values acquired for the housekeeping gene β-actin.
# (§2) The culture medium consisted of minimal essential medium supplemented with 2% of heat-inactivated fetal calf serum, 0.04% gentamycin (50mg/mL) and 2 mM of L-glutamine. Vero cells, obtained from ECACC, were suspended in culture medium and 75 μL/well was added in 96-well plates (10000 cells/well), which already contain the antiviral compounds. […] In addition, each plate contains wells which are assigned as virus controls (containing cells and virus in the absence of compound) and cell controls (containing cells in the absence of virus and compound). Once the cells were added in the plates, the plates were incubated in a fully humidified incubator (37° C., 5% CO2) until the next day. Dengue viruses serotype-1, 2, 3 and 4 were diluted in order to obtain a Cp of ˜22-24 in the assay. Therefore, 25 μL of virus suspension was added to all the wells containing test compound and to the wells assigned as virus control. In parallel, 25 μL of culture medium was added to the cell controls. Next, the plates were incubated for 3 days in a fully humidified incubator (37° C., 5% CO2). After 3 days, the supernatant was removed from the wells and the cells were washed twice with ice-cold PBS (˜100 μL). The cell pellets within the 96-well plates were stored at −80° C. for at least 1 day. Next, RNA was extracted using the Cells-to-CT™ lysis kit, according to the manufacturer's guideline (Life Technologies). The cell lysates can be stored at −80° C. or immediately used in the reverse transcription step.
# (§3) In preparation of the reverse transcription step, mix A (table 3A) was prepared and 7.57 μL/well was dispensed in a 96-well plate. After addition of 5 μL of the cell lysates, a five minute denaturation step at 75° C. was performed (table 3B). Afterwards, 7.43 μL of mix B was added (table 3C) and the reverse transcription step was initiated (table 3D) to generate cDNA.
# (§4) Finally, a RT-qPCR mix was prepared, mix C (table 4A), and 22.02 μL/well was dispensed in 96-well LightCycler qPCR plates to which 3μL of cDNA was added and the qPCR was performed according to the conditions in table 4B on a LightCycler 480.
# (§5) Using the LightCycler software and an in-house LIMS system, dose response curves for each compound were calculated and the half maximal effective concentration (EC50) and the half maximal cytotoxic concentration (CC50) were determined (Tables 5-8).
# [2] = test system: Vero cells; details: African green monkey
# [3] = test system: DENV-4 strain H241; test: Tetravalent RT-qPCR assay, serotype 4; format: cell-based, Dengue virus; details: RT-qPCR serotype 4 H241, Protocol A, Vero cells, day 3, read-out: EC50
# Experimental: as §1, §2, §3, §4, §5
# [4] = test system: DENV-3 strain H87; test: Tetravalent RT-qPCR assay, serotype 3; format: cell-based, Dengue virus; details: RT-qPCR serotype 3 H87, Protocol A, Vero cells, day 3
# Experimental: as §1, §2, §3, §4, §5
# [5] = test system: DENV-1 strain TC974#666; test: Tetravalent RT-qPCR assay, serotype 1; format: cell-based, Dengue virus; details: RT-qPCR serotype 1 TC974#666, Protocol A, Vero cells, day 3
# Experimental: as §1, §2, §3, §4, §5
# [6] = test system: DENV-2 16681 strain; test: DENV-2 antiviral assay (eGFP-labeled virus in Vero cells); format: cell-based, Dengue virus; details: DENV-2 16681 eGFP, MOI 0.5, 3 days
# Experimental: The antiviral activity of all the compounds of the invention was tested the against DENV-2 16681 strain which was labeled with enhanced green fluorescent protein (eGPF). The culture medium consists of minimal essential medium supplemented with 2% of heat-inactivated fetal calf serum, 0.04% gentamycin (50 mg/mL) and 2 mM of L-glutamine. Vero cells, obtained from ECACC, were suspended in culture medium and 25 μL was added to 384-well plates (2500 cells/well), which already contain the antiviral compounds. Typically, these plates contain a 5-fold serial dilution of 9 dilution steps of the test compound at 200 times the final concentration in 100% DMSO (200 nL). […] Finally, each plate contains wells which are assigned as virus controls (containing cells and virus in the absence of compound), cell controls (containing cells in the absence of virus and compound) and medium controls (containing medium in the absence of cells, virus and compounds). To the wells assigned as medium control, 25 μL of culture medium was added instead of Vero cells. Once the cells were added to the plates, the plates were incubated for 30 minutes at room temperature to allow the cells to distribute evenly within the wells. Next, the plates were incubated in a fully humidified incubator (37° C., 5% CO2) until the next day. Then, DENV-2 strain 16681, labeled with eGFP, was added at a multiplicity of infection (MOI) of 0.5. Therefore, 15 μL of virus suspension was added to all the wells containing test compound and to the wells assigned as virus control. In parallel, 15 μL of culture medium was added to the medium and cell controls. Next, the plates were incubated for 3 days in a fully humidified incubator (37° C., 5% CO2). At the day of the read out, the eGFP fluorescence was measured using an automated fluorescence microscope at 488 nm (blue laser). Using an in-house LIMS system, inhibition dose response curves for each compound were calculated and the half maximal effective concentration (EC50) was determined. Therefore, the percent inhibition (I) for every test concentration is calculated using the following formula: I=100*(ST-SCC)/(SVC-SCC), ST, SCC and SVC are the amount of eGFP signal in the test compound, cell control and virus control wells, respectively. The EC50 represents the concentration of a compound at which the virus replication is inhibited with 50%, as measured by a 50% reduction of the eGFP fluorescent intensity compared to the virus control. The EC50 is calculated using linear interpolation (Table 1).
# [7] = in vitro; details: African green monkey
# [8] = Dengue virus, DENV2, Vero, 72 h
# [9] = Dengue virus, DENV4, Vero, 72 h
# [10] = Dengue virus, DENV3, Vero, 72 h
# [11] = Dengue virus, DENV1, Vero, 72 h
SMILES,"EC50 [1, 8] [nM]",CC50 [2] [nM],"EC50 [3, 9] [nM]","EC50 [4, 10] [nM]","EC50 [5, 11] [nM]",EC50 [6] [nM],CC50 [7] [nM],"EC50 [6, 8] [nM]",melting point [°C],EC50 [1] [nM],EC50 [3] [nM],EC50 [4] [nM],EC50 [5] [nM]
"COc1cc(NC(C(=O)N2CCc3c(C)cc(C(F)(F)F)cc32)c2ccc(Cl)cc2)cc(OCCO)c1 (single isomer, unassigned) [Compound 10B, 2-(4-chlorophenyl)-2-((3-(2-hydroxyethoxy)-5-methoxy-phenyl)amino)-1-(4-methyl-6-(trifluoromethyl)indolin-1-yl)ethanone]",2.3,11000,160,16,1.7,2.2,,,,,,,
"COc1cc(NC(C(=O)N2CCc3ccc(C(F)(F)F)cc32)c2ccc(Cl)cc2OC)cc(OCCO)c1 (racemic) [Compound 1, 2-(4-chloro-2-methoxyphenyl)-2-((3-(2-hydroxyethoxy)-5-methoxyphenyl)amino)-1-(6-(trifluoromethyl)indolin-1-yl)ethanone]",,,,,,,13000,5.6,194,,,,
"COc1cc(NC(C(=O)N2CCc3cc(OC)c(C(F)(F)F)cc32)c2ccc(Cl)cc2OC)cc(OCCO)c1 (single isomer, unassigned) [Compound 11B, 2-(4-chloro-2-methoxyphenyl)-2-((3-(2-hydroxyethoxy)-5-methoxyphenyl)amino)-1-(5-methoxy-6-(trifluoromethyl)indolin-1-yl)ethanone]",2,> 25000,280,34,7.8,1.6,,,,,,,
"COc1cc(NC(C(=O)N2CCc3ccc(C(F)(F)F)cc32)c2ccc(Cl)cc2)cc(OCCO)c1 (single isomer, unassigned) [Compound 4A, 2-(4-chlorophenyl)-2-((3-(2-hydroxyethoxy)-5-methoxyphenyl)amino)-1-(6-(trifluoromethyl)indolin-1-yl)ethanone]",,,,,,3.6,12000,,,4.3,210,27,3.9
"COc1cc(NC(C(=O)N2CCc3ccc(C(F)(F)F)cc32)c2ccc(Cl)cc2OC)cc(OCCO)c1 (single isomer, unassigned) [Compound 1B, 2-(4-chloro-2-methoxyphenyl)-2-((3-(2-hydroxyethoxy)-5-methoxyphenyl)amino)-1-(6-(trifluoromethyl)indolin-1-yl)ethanone]",3.6,12000,250,56,4.4,3.6,,,,,,,
"COc1cc(NC(C(=O)N2CCc3c(C)cc(OC(F)(F)F)cc32)c2ccc(Cl)cc2)cc(OCCO)c1 (single isomer, unassigned) [Compound 9B, 2-(4-chlorophenyl)-2-((3-(2-hydroxyethoxy)-5-methoxy-phenyl)amino)-1-(4-methyl-6-(trifluoromethoxy)indolin-1-yl)ethanone]",1.2,11000,110,16,2.7,1.4,,,,,,,
"COc1cc(NC(C(=O)N2CCc3cc(OC)c(C(F)(F)F)cc32)c2ccc(Cl)cc2F)cc(OCCO)c1 (single isomer, unassigned) [Compound 8B, 2-(4-chloro-2-fluorophenyl)-2-((3-(2-hydroxyethoxy)-5-methoxyphenyl)amino)-1-(5-methoxy-6-(trifluoromethyl)indolin-1-yl)ethanone]",2.3,≥ 76000,120,50,8.1,1.9,,,,,,,
"COc1cc(NC(C(=O)N2CCc3cc(F)c(C(F)(F)F)cc32)c2ccc(Cl)cc2)cc(OCCO)c1 (single isomer, unassigned) [Compound 12A, 2-(4-chlorophenyl)-1-(5-fluoro-6-(trifluoromethyl)indolin-1-yl)-2-((3-(2-hydroxyethoxy)-5-methoxyphenyl)amino)ethanone]",4.4,,240,40,3.3,2.3,12000,,,,,,
"COc1cc(NC(C(=O)N2CCc3ccc(C(F)(F)F)cc32)c2ccc(Cl)cc2)cc(OCCO)c1 (single isomer, unassigned) [Compound 4B, 2-(4-chlorophenyl)-2-((3-(2-hydroxyethoxy)-5-methoxyphenyl)amino)-1-(6-(trifluoromethyl)indolin-1-yl)ethanone]",,14000,,,,1100,,,,1000,> 2500,> 1900,700
"COc1cc(NC(C(=O)N2CCc3ccc(OC(F)(F)F)cc32)c2ccc(Cl)cc2)cc(OCCO)c1 (single isomer, unassigned) [Compound 3A, 2-(4-chlorophenyl)-2-((3-(2-hydroxyethoxy)-5-methoxyphenyl)amino)-1-(6-(trifluoromethoxy)indolin-1-yl)ethanone]",2.2,,190,29,3.6,2.3,9600,,,,,,
